Assay results taken from article PMC11048155, “Antiviral Drug Candidate Repositioning for Streptococcus suis Infection in Non-Tumorigenic Cell Models” (Biomedicines, 2024).
Converted amounts (≈) assume the structure as drawn. “Also recorded” adds a separate entry of the source.

Experiments:
[1] = tested on: Pseudomonas (P.) aeruginosa (ATCC 27853); assay: MIC measurement (broth microdilution); assay type: cell-based; details: source ATCC, 18–24 h at 37 °C
[2] = tested on: Escherichia (E.) coli (ATCC 11775); assay: MIC measurement (broth microdilution); assay type: cell-based; details: source ATCC, 18–24 h at 37 °C
[3] = tested on: Pasteurella (P.) multocida (clinical isolate); assay: MIC measurement (broth microdilution); assay type: cell-based; details: source 380/22, 18–24 h at 37 °C
[4] = tested on: Staphylococcus (S.) aureus (ATCC 10832); assay: MIC measurement (broth microdilution); assay type: cell-based; details: source ATCC, 18–24 h at 37 °C, read-out: MIC
S. suis serotype 2 = assay: MIC measurement (broth microdilution); assay type: cell-based, Streptococcus suis; details: source 672/22, 18–24 h at 37 °C
[5] = tested on: Burkholderia (B.) cepacia (clinical isolate); assay: MIC measurement (broth microdilution); assay type: cell-based; details: B. cepacia, source 20-10299; 18–24 h at 37 °C; read-out: MIC
CYP1A2 = target: T1, CYP1A2 (Homo sapiens, UniProt P05177); assay: CYP enzyme fluorometric activity measurement, human hepatic microsomes; details: inhibitor 50 µM, human microsomes, 15 min; p > 0.05
T1 sequence (P05177 1-516): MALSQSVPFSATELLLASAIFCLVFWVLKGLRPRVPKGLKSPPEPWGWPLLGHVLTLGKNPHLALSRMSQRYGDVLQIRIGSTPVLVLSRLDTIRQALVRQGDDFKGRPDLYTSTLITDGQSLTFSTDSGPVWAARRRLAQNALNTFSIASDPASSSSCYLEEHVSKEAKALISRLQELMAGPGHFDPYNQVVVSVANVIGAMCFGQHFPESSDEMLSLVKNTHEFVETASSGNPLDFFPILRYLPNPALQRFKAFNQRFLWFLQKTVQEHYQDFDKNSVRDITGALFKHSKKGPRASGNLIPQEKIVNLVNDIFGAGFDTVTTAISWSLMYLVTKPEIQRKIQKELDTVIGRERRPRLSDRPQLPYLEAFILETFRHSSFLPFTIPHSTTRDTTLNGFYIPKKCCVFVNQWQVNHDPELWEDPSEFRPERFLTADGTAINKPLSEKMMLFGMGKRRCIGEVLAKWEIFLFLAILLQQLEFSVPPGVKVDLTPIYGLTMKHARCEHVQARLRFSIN
Method: (§1) The Biovision CYP assays (BioVision, Inc., Kampenhout, Belgium) employ non-fluorescent CYP2D6, 2C9, 2C19, 1A2, or 3A4 substrates able to undergo transformation into highly fluorescent detectable metabolites. […] Human hepatic microsomal supernatants were prepared (Gibco, Biocentre, Szeged, Hungary protein concentration: 20 mg/mL) separately by mixing 30 µL with 2425 µL assay buffer and with 50 µL nicotinamide adenine dinucleotide phosphate (NADPH) generating system (100×). […] Control measurements were performed in the absence of the inhibitors.
(§2) In background controls, only assay buffer excluding microsomes and test compounds was used in a volume of 70 µL. Subsequently, after incubation at 37 °C for 15 min, 30 µL of the suitable CYP substrate/NADP+ mixture was incorporated into each well, resulting in a final reaction volume of 100 µL/well. The obtained microsomal protein content was assessed using the bicinchoninic acid protein assay kit (Pierce BCA kit, Thermo Fisher Scientific, Waltham, MA, USA). In each assay, the microsomal protein concentration was calibrated to 100 µg/well. The fluorescence intensities were measured with a fluorometer (Victor X2 2030, Perkin Elmer, Waltham, MA, USA) using λex/em = 406/468 nm for CYP1A2 and for CYP2C19, λex/em = 415/502 nm for CYP2C9, λex/em = 390/468 nm for CYP2D6, and λex/em = 535/587 nm for CYP3A4 assays.

CYP3A4 = CYP3A4 (Homo sapiens, UniProt P08684); assay: as above; details: human microsomal preparations, 15 min, 37 °C, p < 0.0001
Method: as §1, §2

IPEC-J2 cells = assay: Cell viability, Neutral red assay; assay type: cell-based, porcine; details: IPEC-J2, S. suis 10^4 CFU/mL in combination with inhibitor 50 µM, 24 h
Excerpt: The IPEC-J2 cell line is unique as it is non-transformed and non-tumorigenic. IPEC-J2 cells are derived from intestinal enterocytes extracted from the jejunum of neonatal unsuckled piglets. IPEC-J2 cells were gifted by Dr. Jody Gookin (Department of Clinical Sciences, College of Veterinary Medicine, North Carolina State University, Raleigh, NC, USA). […] The cells had undergone passage around 50 times. […] This experiment included plain DMEM/F12 medium as a control. At the end of the final treatments (24 h), the ratio of viable cells was measured by absorbance at 540 nm wavelength with a SpectraMax iD3 microplate reader.

CYP3A4, sequence (P08684 whole entry): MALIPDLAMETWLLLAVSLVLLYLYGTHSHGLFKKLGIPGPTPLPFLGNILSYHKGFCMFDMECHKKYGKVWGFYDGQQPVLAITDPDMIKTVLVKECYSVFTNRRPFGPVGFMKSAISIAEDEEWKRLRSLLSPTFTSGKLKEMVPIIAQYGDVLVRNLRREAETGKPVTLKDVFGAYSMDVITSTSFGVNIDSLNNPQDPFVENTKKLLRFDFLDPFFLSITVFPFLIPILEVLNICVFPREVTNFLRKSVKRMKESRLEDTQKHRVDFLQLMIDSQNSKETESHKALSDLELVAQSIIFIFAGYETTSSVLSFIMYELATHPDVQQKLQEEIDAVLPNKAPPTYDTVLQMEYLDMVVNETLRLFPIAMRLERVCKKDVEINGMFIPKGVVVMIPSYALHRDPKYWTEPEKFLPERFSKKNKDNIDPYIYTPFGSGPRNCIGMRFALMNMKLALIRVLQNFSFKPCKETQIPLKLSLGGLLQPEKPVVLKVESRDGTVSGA

SMILES | MIC [1] [µM] | MIC [2] [µM] | MIC [3] [µM] | MIC [4] [µM] | MIC (S. suis serotype 2; Streptococcus suis) [µM] | MIC (S. suis serotype 2) [µM] | MIC [5] [µM] | CYP1A2 activity (CYP1A2) | CYP3A4 isoenzyme activity (CYP3A4; inhibitor 10 µM) | CYP3A4 isoenzyme activity (CYP3A4; inhibitor 25 µM) | CYP3A4 isoenzyme activity (CYP3A4; inhibitor 50 µM) | cell viability (IPEC-J2 cells)
N=C(N)c1cccc(C[C@H](NS(=O)(=O)c2cccc(-c3ccc(Cl)cc3Cl)c2)C(=O)N2CCC(N)CC2)c1 [MI-471] | > 800 | > 800 | 50 (≈ 28.7 µg/mL) | 100 (≈ 57.5 µg/mL) | 3 (≈ 1.72 µg/mL) | 3.125 (≈ 1.8 µg/mL) | 400 (≈ 230 µg/mL) | No significant inhibitory effects | mitigated | mitigated | mitigated | did not show any negative effect on cell viability; also recorded: effectively suppressed
N=C(N)c1cccc(C[C@H](NS(=O)(=O)c2cccc(-c3ccc(Cl)cc3Cl)c2)C(=O)N2CCC(CN)CC2)c1 [MI-476] | > 800 | > 800 | 50 (≈ 29.4 µg/mL) | 100 (≈ 58.9 µg/mL) | 6 (≈ 3.53 µg/mL) | 6.25 (≈ 3.68 µg/mL) | 400 (≈ 235 µg/mL) | No significant inhibitory effects | mitigated | mitigated | mitigated | did not show any negative effect on cell viability; also recorded: effectively suppressed
